In this assay the test system is KIBRA with conventional PKCs (PKCα, PKCβI, PKCβII, PKCγ). The assay can be described thus: BiFC assay of KIBRA with conventional PKCs in HEK293T cells. The class given is cell-based, human. The settings on record: 10 μM. On the procedure: KIBRA-PKMζ BiFC was performed as previously described (28), using pVen1-FLAG-KIBRA and pVen2-HA-PKMζ, in which PKMζ was cloned between EcoR1 and BamH1 sites. The constructs pVen1 and pVen2 encode the N-terminus (amino acids 1-154) and C-terminus (amino acids 155-238) of the Venus protein, respectively, and the Venus fragments were on the N-terminal of the fusion proteins. pVen2-HA-PKMζ[PKCι/λ-P291Q;F297S] was generated by site-directed mutagenesis using forward-cctggagAagcAAatceggatcccccggtCcctgtccgte and reverse-gacggacaggGaccgggggatccggatTTgctTctccagg primers and the QuickChange II XL Site-Directed Mutagenesis Kit (Agilent Technologies), following manufacturer's instructions. Additional pVen2-HA-PKC isoforms and pVen2-HA-CaMKIIα in the pVen2-HA vector were generated by cloning the N-terminus of the coding sequence of each kinase (table S1) to obtain an in-frame fusion at the C-terminus of the pVen2-HA. Human versions of KIBRA and kinases were used, and all PCR amplified sequences and constructs were verified by DNA sequencing.
HEK293T cells were cultured in Dulbecco's Modified Eagle's Medium supplemented with 10% heat-inactivated fetal bovine serum, 100 U/ml penicillin, […] streptomycin, 2 mM glutamine, and 10 mM HEPES in a T75 tissue culture flask with canted neck and ventilated cap. […]

Take `O=S(=O)(O)c1cc(O)c2c(S(=O)(=O)O)cc(S(=O)(=O)O)cc2c1` [ζ-stat, 1-naphthol-3,6,8-trisulphonic acid]: the “effect on BiFC of KIBRA with conventional PKCs” value was “has no effect”.

The values above are taken from patent US20250154212A1, “METHOD OF DISRUPTING MEMORY AND LIPOPEPTIDE FOR USE IN SUCH METHOD” (The Research Foundation for The State University of New York, priority 2023, published 2025).
